The values that follow come from article PMC5538713, “RORγt and RORα signature genes in human Th17 cells” (PLoS ONE, 2017).

Common to all, as to assay: Cerep selectivity panel
Common to all, as to type: binding

In test [1] the target is T1, ɣ2 (h) (Homo sapiens, UniProt P49146).
T1 construct: purchased Cerep
T1 sequence (P49146 1-381): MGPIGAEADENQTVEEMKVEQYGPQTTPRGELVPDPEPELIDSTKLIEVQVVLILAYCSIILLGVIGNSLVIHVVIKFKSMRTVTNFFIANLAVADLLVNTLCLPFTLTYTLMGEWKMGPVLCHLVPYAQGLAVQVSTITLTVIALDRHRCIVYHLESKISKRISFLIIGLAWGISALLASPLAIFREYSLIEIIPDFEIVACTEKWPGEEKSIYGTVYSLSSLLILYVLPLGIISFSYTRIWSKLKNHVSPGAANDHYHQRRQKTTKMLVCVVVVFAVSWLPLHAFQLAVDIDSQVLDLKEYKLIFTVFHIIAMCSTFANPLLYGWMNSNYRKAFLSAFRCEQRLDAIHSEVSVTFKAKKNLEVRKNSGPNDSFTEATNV
The method, then: (§1) Supplementary file pone.0181868.s003.docx: S3 Table Selectivity profile of RORγt inverse agonists A, B, C and D. Compounds were evaluated at 1 μM and 10 μM in a panel of assays against 50 receptors, ion channels and transporters (Profile service by Cerep Inc.). (DOCX) Click here for additional data file.
(§2) S3 Table. RORɣt inverse agonists A, B, C and D were evaluated at 1 µM and 10 µM in a panel of assays against 50 receptors, ion channels and transporters (Profile service by Cerep Inc.).

Test [2] deals with T2, ORL1 (h) (Homo sapiens, UniProt P41146).
T2 construct: purchased Cerep
T2 sequence (P41146 whole entry): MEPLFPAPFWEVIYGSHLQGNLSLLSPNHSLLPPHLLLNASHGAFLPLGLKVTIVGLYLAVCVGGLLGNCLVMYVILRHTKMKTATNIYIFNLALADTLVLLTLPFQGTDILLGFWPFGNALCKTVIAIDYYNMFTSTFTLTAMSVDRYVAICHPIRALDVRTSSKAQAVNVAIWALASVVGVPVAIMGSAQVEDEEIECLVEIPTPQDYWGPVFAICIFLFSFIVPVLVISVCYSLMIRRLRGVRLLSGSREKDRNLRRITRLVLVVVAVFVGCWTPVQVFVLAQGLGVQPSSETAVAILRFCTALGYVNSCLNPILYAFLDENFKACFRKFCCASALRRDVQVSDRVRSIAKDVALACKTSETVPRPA
Conditions: for inhibition at 1 µM: read-out: % Inhibition at 1µM; for inhibition at 10 µM: read-out: % Inhibition at 10µM. The method, then: as §1, §2

The target of test [3] is T3, D1 (h) (Homo sapiens, UniProt P21728).
T3 construct: purchased Cerep
T3 sequence (P21728 whole entry): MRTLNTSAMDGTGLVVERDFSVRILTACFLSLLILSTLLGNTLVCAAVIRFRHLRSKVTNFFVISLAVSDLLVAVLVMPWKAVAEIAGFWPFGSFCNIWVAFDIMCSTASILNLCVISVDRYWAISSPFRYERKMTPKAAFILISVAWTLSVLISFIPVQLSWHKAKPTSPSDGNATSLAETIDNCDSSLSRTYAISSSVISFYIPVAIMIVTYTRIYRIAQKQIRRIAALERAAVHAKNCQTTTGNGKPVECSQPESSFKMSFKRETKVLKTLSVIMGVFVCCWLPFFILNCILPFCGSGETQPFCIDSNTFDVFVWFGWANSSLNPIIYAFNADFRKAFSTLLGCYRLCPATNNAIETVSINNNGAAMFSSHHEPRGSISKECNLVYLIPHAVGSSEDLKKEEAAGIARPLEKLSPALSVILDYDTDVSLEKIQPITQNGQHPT
Conditions: for inhibition at 1 µM: read-out: % Inhibition at 1µM; for inhibition at 10 µM: read-out: % Inhibition at 10µM. The procedure:
as §1, §2

Test [4] deals with T4, MC4 (h) (Homo sapiens, UniProt P32245).
T4 construct: purchased Cerep
T4 sequence (P32245 whole entry): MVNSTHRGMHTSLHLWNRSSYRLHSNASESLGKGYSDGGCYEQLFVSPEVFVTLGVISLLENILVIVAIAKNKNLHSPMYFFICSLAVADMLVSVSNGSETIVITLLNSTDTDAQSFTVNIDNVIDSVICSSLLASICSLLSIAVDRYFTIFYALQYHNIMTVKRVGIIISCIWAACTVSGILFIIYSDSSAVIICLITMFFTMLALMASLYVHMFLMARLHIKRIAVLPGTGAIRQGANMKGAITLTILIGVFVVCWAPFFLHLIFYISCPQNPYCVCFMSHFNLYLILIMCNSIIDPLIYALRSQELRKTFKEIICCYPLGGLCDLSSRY
Conditions: for inhibition at 10 µM: read-out: % Inhibition at 10µM; for inhibition at 1 µM: read-out: % Inhibition at 1µM. The procedure:
as §1, §2

Test [5] has as its target T5, 5HT2A (h) (Homo sapiens, UniProt P28223).
T5 construct: purchased Cerep
Conditions: read-out: % Inhibition at 10µM. The procedure: as §1, §2

In test [6] the target is T6, V1 a (h) (Homo sapiens, UniProt P37288).
T6 construct: purchased Cerep
T6 sequence (P37288 whole entry): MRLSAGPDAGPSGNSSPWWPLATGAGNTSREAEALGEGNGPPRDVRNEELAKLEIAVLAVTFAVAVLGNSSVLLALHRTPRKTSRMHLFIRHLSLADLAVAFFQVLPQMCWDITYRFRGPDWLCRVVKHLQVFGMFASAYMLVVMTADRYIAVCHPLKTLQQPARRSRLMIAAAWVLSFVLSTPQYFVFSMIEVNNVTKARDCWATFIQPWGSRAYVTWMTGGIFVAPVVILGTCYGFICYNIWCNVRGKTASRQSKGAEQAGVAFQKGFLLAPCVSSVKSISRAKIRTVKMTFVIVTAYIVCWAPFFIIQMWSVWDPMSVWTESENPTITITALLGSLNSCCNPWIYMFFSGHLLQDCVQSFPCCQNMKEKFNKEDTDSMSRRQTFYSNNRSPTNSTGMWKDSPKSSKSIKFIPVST
Conditions: for inhibition at 10 µM: read-out: % Inhibition at 10µM. The method, then:
as §1, §2

The target of test [7] is T7, A3 (h) (Homo sapiens, UniProt P0DMS8).
T7 construct: purchased Cerep
T7 sequence (P0DMS8 1-318): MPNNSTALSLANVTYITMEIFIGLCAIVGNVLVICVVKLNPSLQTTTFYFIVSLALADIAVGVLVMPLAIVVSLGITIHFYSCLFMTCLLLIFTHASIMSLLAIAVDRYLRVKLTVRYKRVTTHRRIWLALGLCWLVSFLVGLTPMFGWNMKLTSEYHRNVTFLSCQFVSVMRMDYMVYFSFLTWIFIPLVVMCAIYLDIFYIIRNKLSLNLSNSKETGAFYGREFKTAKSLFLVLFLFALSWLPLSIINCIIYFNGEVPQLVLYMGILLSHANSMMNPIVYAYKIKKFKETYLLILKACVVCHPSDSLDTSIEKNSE
Conditions: for inhibition at 1 µM: read-out: % Inhibition at 1µM; for inhibition at 10 µM: read-out: % Inhibition at 10µM. The method, then: as §1, §2

Test [8] concerns the target T8, M3 (h) (Homo sapiens, UniProt P20309).
T8 construct: purchased Cerep
Conditions: for inhibition at 1 µM: read-out: % Inhibition at 1µM; for inhibition at 10 µM: read-out: % Inhibition at 10µM. The method, then: as §1, §2

For test [9], the target named is T9, BK2 (h) (Homo sapiens, UniProt P30411).
T9 construct: purchased Cerep
T9 sequence (P30411 1-391): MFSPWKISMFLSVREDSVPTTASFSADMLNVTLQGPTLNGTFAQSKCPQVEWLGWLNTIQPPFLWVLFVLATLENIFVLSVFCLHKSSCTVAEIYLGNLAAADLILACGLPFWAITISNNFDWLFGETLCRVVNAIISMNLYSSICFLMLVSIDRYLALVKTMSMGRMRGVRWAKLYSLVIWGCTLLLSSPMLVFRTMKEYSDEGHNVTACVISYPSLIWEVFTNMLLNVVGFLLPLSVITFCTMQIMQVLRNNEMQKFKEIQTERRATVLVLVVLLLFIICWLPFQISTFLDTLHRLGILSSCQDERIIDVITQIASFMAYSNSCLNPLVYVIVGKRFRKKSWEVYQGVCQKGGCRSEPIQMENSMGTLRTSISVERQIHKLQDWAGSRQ
Conditions: for inhibition at 1 µM: read-out: % Inhibition at 1µM; for inhibition at 10 µM: read-out: % Inhibition at 10µM. The procedure:
as §1, §2

Test [10] has as its target T10, NK3 (h) (Homo sapiens, UniProt P29371).
T10 construct: purchased Cerep
T10 sequence (P29371 1-465): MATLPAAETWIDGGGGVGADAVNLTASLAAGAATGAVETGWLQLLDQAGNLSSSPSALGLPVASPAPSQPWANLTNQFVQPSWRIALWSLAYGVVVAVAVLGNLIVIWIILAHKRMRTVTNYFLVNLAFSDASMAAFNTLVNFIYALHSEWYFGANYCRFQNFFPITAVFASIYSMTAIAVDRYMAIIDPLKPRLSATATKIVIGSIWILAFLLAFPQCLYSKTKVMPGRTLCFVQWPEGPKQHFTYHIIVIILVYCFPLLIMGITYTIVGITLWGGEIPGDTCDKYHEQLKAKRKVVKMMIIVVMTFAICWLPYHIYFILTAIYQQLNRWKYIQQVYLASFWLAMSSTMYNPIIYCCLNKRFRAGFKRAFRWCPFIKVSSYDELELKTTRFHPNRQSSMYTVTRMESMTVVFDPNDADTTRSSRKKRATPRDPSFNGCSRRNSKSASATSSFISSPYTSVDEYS
Conditions: for inhibition at 1 µM: read-out: % Inhibition at 1µM; for inhibition at 10 µM: read-out: % Inhibition at 10µM. The procedure:
as §1, §2

In test [11] the target is T11, DA-T (Homo sapiens, UniProt Q01959).
T11 construct: purchased Cerep
T11 sequence (Q01959 whole entry): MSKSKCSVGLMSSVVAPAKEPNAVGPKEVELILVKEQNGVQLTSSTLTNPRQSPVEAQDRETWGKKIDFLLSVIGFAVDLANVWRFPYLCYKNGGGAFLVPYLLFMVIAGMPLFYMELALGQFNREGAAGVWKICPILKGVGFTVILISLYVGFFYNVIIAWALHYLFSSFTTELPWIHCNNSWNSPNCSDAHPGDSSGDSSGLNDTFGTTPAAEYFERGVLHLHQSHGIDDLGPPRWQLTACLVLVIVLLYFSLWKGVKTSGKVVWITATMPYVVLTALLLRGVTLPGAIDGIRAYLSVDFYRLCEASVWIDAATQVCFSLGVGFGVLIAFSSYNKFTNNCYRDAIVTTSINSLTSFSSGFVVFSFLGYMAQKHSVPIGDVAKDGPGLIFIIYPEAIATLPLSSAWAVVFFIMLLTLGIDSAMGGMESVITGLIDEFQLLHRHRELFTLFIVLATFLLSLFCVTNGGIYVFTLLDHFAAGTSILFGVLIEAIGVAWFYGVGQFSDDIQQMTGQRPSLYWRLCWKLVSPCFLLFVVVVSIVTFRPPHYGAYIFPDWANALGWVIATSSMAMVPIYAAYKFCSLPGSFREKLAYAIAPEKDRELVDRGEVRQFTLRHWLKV
Conditions: for inhibition at 1 µM: read-out: % Inhibition at 1µM; for inhibition at 10 µM: read-out: % Inhibition at 10µM. The method, then: as §1, §2

Test [12] has as its target T12, 5HT2B (h) (Homo sapiens, UniProt P41595).
T12 construct: purchased Cerep
Conditions: for inhibition at 10 µM: read-out: % Inhibition at 10µM. The method, then:
as §1, §2

The target in test [13] is T13, CXCR2 (h) (Homo sapiens, UniProt P25025).
T13 construct: purchased Cerep
T13 sequence (P25025 1-360): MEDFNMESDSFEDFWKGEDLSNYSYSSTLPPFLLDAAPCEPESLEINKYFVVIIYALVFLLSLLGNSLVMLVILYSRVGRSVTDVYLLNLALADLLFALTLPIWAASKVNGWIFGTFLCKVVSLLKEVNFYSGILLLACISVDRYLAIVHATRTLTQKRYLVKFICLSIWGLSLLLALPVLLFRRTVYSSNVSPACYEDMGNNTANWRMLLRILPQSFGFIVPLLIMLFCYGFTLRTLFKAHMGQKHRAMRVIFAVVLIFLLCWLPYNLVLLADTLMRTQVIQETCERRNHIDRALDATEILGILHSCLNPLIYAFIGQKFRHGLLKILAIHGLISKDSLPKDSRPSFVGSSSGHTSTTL
Conditions: read-out: % Inhibition at 10µM. The procedure: as §1, §2

Test [14] addresses T14, 5-HT6 (h) (Homo sapiens, UniProt P50406).
T14 construct: purchased Cerep
Conditions: for inhibition at 10 µM: read-out: % Inhibition at 10µM. The method, then:
as §1, §2

Read-outs that look alike come from different tables or passages of the source.

T8 sequence (P20309 whole entry): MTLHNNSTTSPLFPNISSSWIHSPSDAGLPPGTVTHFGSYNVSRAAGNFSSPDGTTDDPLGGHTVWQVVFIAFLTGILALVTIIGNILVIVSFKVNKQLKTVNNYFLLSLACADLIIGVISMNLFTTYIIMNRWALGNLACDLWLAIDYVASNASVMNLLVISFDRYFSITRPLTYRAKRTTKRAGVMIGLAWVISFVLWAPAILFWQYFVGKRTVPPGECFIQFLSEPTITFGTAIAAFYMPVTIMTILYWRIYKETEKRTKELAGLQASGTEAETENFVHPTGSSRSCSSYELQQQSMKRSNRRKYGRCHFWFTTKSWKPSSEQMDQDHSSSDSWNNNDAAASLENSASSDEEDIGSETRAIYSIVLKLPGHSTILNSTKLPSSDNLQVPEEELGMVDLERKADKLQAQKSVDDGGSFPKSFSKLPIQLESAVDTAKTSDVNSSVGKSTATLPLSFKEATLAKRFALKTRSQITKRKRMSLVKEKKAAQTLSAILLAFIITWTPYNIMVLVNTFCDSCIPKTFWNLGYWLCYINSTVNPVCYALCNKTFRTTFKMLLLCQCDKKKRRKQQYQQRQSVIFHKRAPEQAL
T12 sequence (P41595 whole entry): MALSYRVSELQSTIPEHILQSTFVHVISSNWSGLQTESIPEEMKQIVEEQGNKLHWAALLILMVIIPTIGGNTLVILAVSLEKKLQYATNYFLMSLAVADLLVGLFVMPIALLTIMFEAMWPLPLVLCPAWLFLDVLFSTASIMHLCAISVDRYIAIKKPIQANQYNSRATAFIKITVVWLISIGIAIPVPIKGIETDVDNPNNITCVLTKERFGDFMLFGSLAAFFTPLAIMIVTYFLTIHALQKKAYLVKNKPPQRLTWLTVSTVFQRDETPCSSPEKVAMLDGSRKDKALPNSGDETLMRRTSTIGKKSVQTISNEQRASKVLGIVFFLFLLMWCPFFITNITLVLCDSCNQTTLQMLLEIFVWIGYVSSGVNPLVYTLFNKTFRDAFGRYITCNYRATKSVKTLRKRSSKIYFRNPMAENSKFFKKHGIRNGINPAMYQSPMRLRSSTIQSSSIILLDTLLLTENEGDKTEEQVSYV
T14 sequence (P50406 whole entry): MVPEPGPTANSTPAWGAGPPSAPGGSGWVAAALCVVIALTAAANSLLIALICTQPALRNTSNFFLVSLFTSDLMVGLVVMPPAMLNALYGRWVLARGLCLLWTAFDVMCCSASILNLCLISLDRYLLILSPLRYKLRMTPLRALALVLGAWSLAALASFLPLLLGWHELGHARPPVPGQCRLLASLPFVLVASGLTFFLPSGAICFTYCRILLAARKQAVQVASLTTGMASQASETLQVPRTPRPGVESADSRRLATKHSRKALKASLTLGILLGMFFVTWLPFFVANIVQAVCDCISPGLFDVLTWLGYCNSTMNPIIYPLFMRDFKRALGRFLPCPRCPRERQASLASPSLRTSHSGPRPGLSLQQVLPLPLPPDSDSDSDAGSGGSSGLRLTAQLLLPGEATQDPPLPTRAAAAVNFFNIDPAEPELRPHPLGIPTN
T5 sequence (P28223 whole entry): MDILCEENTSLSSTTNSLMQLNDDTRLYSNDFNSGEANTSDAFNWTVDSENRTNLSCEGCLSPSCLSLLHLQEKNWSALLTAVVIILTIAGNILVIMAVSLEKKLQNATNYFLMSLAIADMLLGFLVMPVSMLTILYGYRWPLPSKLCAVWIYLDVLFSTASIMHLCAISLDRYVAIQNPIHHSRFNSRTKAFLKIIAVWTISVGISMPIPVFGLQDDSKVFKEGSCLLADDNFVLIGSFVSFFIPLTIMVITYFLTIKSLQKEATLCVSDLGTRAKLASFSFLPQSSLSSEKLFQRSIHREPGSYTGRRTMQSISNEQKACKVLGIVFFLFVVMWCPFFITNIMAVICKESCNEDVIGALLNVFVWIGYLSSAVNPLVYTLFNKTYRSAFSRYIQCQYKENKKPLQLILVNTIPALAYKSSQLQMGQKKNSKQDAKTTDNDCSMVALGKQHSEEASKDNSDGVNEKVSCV

`COc1nc2ccc([C@](O)(c3ccc(Cl)cc3)c3cncn3C)cc2c(Cl)c1Cc1ccc(-n2cccn2)cc1` [B]: the inhibition (commonly the change of the read-out against control, counted positive when it falls) at 10 µM came out at 10% in [1]; 4% in test [2]; 29% in [3]; 6% in test [4]; 12% in [5]; 10% in [6]. The inhibition at 10 µM in test [7] was determined as 20%; in test [8], 15%; in test [9] it was 6%; in test [10] it was 10%. Moreover, the inhibition at 1 µM worked out at 6% in [2]; 10% in test [3]; 10% in test [6] (read-out: % Inhibition at 1µM); 9% in [7]; 1% in [8]; 9% in test [9]. Moreover, the inhibition at 1 µM in test [10] came out at 1%.
Consider `COc1nc2ccc([C@@](O)(c3ccccc3)C3CCN(C(C)=O)CC3)cc2c(Cl)c1Cc1ccc(-n2cccn2)cc1` [C], for which the inhibition at 10 µM in [1] stood at 5%; in test [11] it was 25%; in test [3] it was 11%; in test [12] it was 1%; in test [13], 10%; in test [14] it was 22%. In addition, the inhibition at 10 µM was determined as 41% in test [7], 19% in test [8] and 31% in [10]. Also, the inhibition at 1 µM in [11] turned out to be 17%; in [4], 14%; in [12] (read-out: % Inhibition at 1µM) it was 17.5%; in [14] (read-out: % Inhibition at 1µM), 20%; in test [7] it was 16%; in test [8], 21%. In addition, the inhibition at 1 µM in [10] was found to be 21%.
In the case of `COc1nc2ccc([C@@](O)(c3ccc(C)nc3C)c3cnnn3C)cc2c(Cl)c1Cc1ccc(C(F)(F)F)cc1` [compound A], the inhibition at 1 µM worked out at 38% in test [11] (DA-T, 1 µM); 1% in [2] (ORL1 (h), 1 µM); 16% in [3] (D1 (h), 1 µM); 49% in [7] (A3 (h), 1 µM); 6% in test [9] (BK2 (h), 1 µM); 9% in test [10] (NK3 (h), 1 µM). Further, the inhibition at 10 µM in test [11] (DA-T, 10 µM) is 81%; in test [2] (ORL1 (h), 10 µM), 10%; in test [3] (D1 (h), 10 µM), 48%; in [4] (MC4 (h), 10 µM), 9%; in [5] (5HT2A (h), 10 µM), 27%; in [6] (V1 a (h), 10 µM), 19%. Moreover, the inhibition at 10 µM in test [12] (5HT2B (h), 10 µM) turned out to be 43%; in test [13] (CXCR2 (h), 10 µM), 12%; in [14] (5-HT6 (h), 10 µM), 10%; in test [7] (A3 (h), 10 µM) it was 92%; in test [8] (M3 (h), 10 µM), 63%; in test [10] (NK3 (h), 10 µM) it was 57%.
Turning to `CN(C)c1nc2ccc(C(O)(c3ccncc3)c3cncn3C)cc2c(Cl)c1-c1ccccc1` (stereo not drawn) [compound D], the inhibition at 1 µM in test [1] (1 µM) was 10%; in [11] it was 23%; in test [2], 5%; in test [4] it was 3%; in test [8] it was 33%. Also, the inhibition at 10 µM in test [1] was 15%; in test [11], 87%; in test [3], 40%; in test [4], 25%; in test [5] it was 22%; in test [6], 12%. Also, the inhibition at 10 µM in test [12] was found to be 106%; in test [13], 17%; in [14] it was 18%; in [7], 67%; in test [8], 70%; in [9] it was 10%. Further, in [10], the inhibition at 10 µM was found to be 45%.
